Source: US20060069132A1, “Azolecarboxamide herbicides” (priority 2004, published 2006)

How the values were obtained:
[1] = test system: ducksalad; experiment: Test C flooded paddy test; assay type: in vivo, Heteranthera limosa; conditions: for Plant response rating, Ducksalad: 500 g ai/ha, visual rating after 12 to 14 days
[2] = test system: lambsquarters; experiment: Test C pre-/postemergence herbicide test; assay type: in vivo, Chenopodium album; conditions: preemergence
In short: (§1)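 Seeds were planted and sprayed preemergence with test chemicals in a non-phytotoxic solvent mixture containing surfactant; postemergence treatments went onto plants 2 to 18 cm tall (1- to 4-leaf stage). After 12 to 14 days in a greenhouse, injury was rated visually against untreated controls on a 0–100 scale.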

[3] = test system: morningglory; experiment: Test C pre-/postemergence herbicide test; assay type: in vivo, Ipomoea coccinea; set-up: key to Plant response rating, Morningglory: 0 = no effect, 100 = complete control; conditions: preemergence
In short: as §1

[4] = test system: smallflower umbrella sedge; experiment: Test C flooded paddy test; assay type: in vivo, Cyperus difformis; conditions: for Plant response rating, Sedge, Umbrella: 500 g ai/ha, visual rating after 12 to 14 days
[5] = test system: corn; experiment: Test C pre-/postemergence herbicide test; assay type: in vivo, Zea mays; conditions: preemergence
In short: as §1

[6] = test system: eastern black nightshade; experiment: Test C pre-/postemergence herbicide test; assay type: in vivo, Solanum ptycanthum; conditions: preemergence
In short: as §1

[7] = test system: Surinam grass; experiment: Test C pre-/postemergence herbicide test; assay type: in vivo, Urochloa decumbens; conditions: preemergence
In short: as §1

[8] = test system: yellow nutsedge; experiment: Test C pre-/postemergence herbicide test; assay type: in vivo, Cyperus esculentus; conditions: preemergence
In short: as §1

[9] = test system: johnsongrass; experiment: Test C pre-/postemergence herbicide test; assay type: in vivo, Sorghum halepense; conditions: preemergence
In short: as §1

[10] = test system: giant foxtail; experiment: Test C pre-/postemergence herbicide test; assay type: in vivo, Setaria faberi; conditions: preemergence
In short: as §1

[11] = test system: barnyardgrass; experiment: Test C flooded paddy test; assay type: in vivo, Echinochloa crus-galli; conditions: for Plant response rating, Barnyardgrass: 500 g ai/ha, visual rating after 12 to 14 days
In short: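 Scoring by eye, 12–14 days post-treatment, greenhouse-held plants vs. controls; 0 no effect, 100 complete control. Sprayed at 1–4 leaves (2–18 cm); paddy barnyardgrass at 2 leaves, flooded.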

[12] = test system: soybean; experiment: Test C pre-/postemergence herbicide test; assay type: in vivo, Glycine max; conditions: preemergence
In short: as §1

[13] = test system: common ragweed; experiment: Test C pre-/postemergence herbicide test; assay type: in vivo, Ambrosia elatior; set-up: key to Plant response rating, Ragweed: 0 = no effect, 100 = complete control; conditions: preemergence
In short: as §1

[14] = 125 g ai/ha, scale 0 to 100 (0 no effect, 100 complete control)
[15] = 250 g ai/ha, scale of 0 to 100, 0 is no effect, 100 is complete control
[16] = scale 0 to 100 (0 no effect, 100 complete control)
[17] = 125 g ai/ha, scale 0 (no effect) to 100 (complete control), visual, 12 to 14 days
[18] = 500 g ai/ha, scale 0 to 100 (0 no effect, 100 complete control), visual, 12 to 14 days
[19] = 62 g ai/ha, scale 0 to 100 (0 no effect, 100 complete control)

## CCN1N=C(C(C)(C)C)CC1C(=O)Nc1cc(C(=O)N2CC=CC2)ccc1F (racemic) [Compound 310]
[1]; 62 g ai/ha, scale 0 to 100
  Ducksalad plant response rating: 45
[1]; [14]
  Ducksalad plant response rating: 75
[1]; [15]
  Ducksalad plant response rating: 80
[1]; [16]
  Plant response rating, Ducksalad: 90
[2]; 62 g ai/ha, scale 0 to 100
  Plant response rating, Lambsquarters: 95
[2]; [17]
  Plant response rating, Lambsquarters: 100
[2]; 250 g ai/ha, scale 0-100
  Plant response rating, Lambsquarters: 100
[2]; [18]
  Plant response rating, Lambsquarters: 100
[3]; 62 g ai/ha, scale 0 to 100
  Plant response rating, Morningglory: 0
[3]; [17]
  Plant response rating, Morningglory: 5
[3]; 250 g ai/ha, scale 0-100
  Plant response rating, Morningglory: 5
[3]; [18]
  Plant response rating, Morningglory: 10
[4]; 62 g ai/ha, scale 0 to 100
  Sedge, Umbrella plant response rating: 35
[4]; [14]
  Sedge, Umbrella plant response rating: 85
[4]; [15]
  Sedge, Umbrella plant response rating: 85
[4]; [16]
  Plant response rating, Sedge, Umbrella: 85
[5]; [17]
  Plant response rating, Corn: 0
[5]; 250 g ai/ha, scale 0-100
  Plant response rating, Corn: 5
[5]; [18]
  Plant response rating, Corn: 10
[6]; 62 g ai/ha, scale 0 to 100
  Plant response rating, Nightshade: 30
[6]; [17]
  Plant response rating, Nightshade: 35
[6]; 250 g ai/ha, scale 0-100
  Plant response rating, Nightshade: 100
[6]; [18]
  Plant response rating, Nightshade: 100
[7]; 62 g ai/ha, scale 0 to 100
  Plant response rating, Surinam Grass: 5
[7]; 250 g ai/ha, scale 0-100
  Plant response rating, Surinam Grass: 30
[7]; [18]
  Plant response rating, Surinam Grass: 50
[8]; 62 g ai/ha, scale 0 to 100
  Plant response rating, Nutsedge, Yellow: 0
[8]; [17]
  Plant response rating, Nutsedge, Yellow: 0
[8]; 250 g ai/ha, scale 0-100
  Plant response rating, Nutsedge, Yellow: 0
[8]; [18]
  Plant response rating, Nutsedge, Yellow: 15
[9]; 62 g ai/ha, scale 0 to 100
  Plant response rating, Johnsongrass: 0
[9]; [17]
  Plant response rating, Johnsongrass: 10
[9]; 250 g ai/ha, scale 0-100
  Plant response rating, Johnsongrass: 20
[9]; [18]
  Plant response rating, Johnsongrass: 80
[10]; 62 g ai/ha, scale 0 to 100
  Plant response rating, Foxtail, Giant: 5
[10]; [17]
  Plant response rating, Foxtail, Giant: 40
[10]; 250 g ai/ha, scale 0-100
  Plant response rating, Foxtail, Giant: 85
[10]; [18]
  Plant response rating, Foxtail, Giant: 100
[11]; [19]
  Barnyardgrass plant response rating: 35
[11]; [14]
  Barnyardgrass plant response rating: 50
[11]; [15]
  Barnyardgrass plant response rating: 70
[11]; [16]
  Plant response rating, Barnyardgrass: 90
[12]; 62 g ai/ha, scale 0 to 100
  Plant response rating, Soybean: 0
[12]; 250 g ai/ha, scale 0-100
  Plant response rating, Soybean: 30
[13]; 62 g ai/ha, scale 0 to 100
  Plant response rating, Ragweed: 0
[13]; 250 g ai/ha, scale 0-100
  Plant response rating, Ragweed: 50
[13]; [18]
  Plant response rating, Ragweed: 80

## CCn1nc(C(C)(C)C)cc1C(=O)Nc1ccc(OC)c(OC)c1 [Compound 298]
[1]; 62 g ai/ha, scale 0 to 100
  Ducksalad plant response rating: 35
[1]; [14]
  Ducksalad plant response rating: 40
[1]; [15]
  Ducksalad plant response rating: 80
[1]; [16]
  Plant response rating, Ducksalad: 90
[2]; 62 g ai/ha, scale 0 to 100
  Plant response rating, Lambsquarters: 100
[2]; [17]
  Plant response rating, Lambsquarters: 100
[2]; 250 g ai/ha, scale 0-100
  Plant response rating, Lambsquarters: 100
[2]; [18]
  Plant response rating, Lambsquarters: 100
[3]; [17]
  Plant response rating, Morningglory: 5
[3]; 250 g ai/ha, scale 0-100
  Plant response rating, Morningglory: 20
[3]; [18]
  Plant response rating, Morningglory: 45
[4]; 62 g ai/ha, scale 0 to 100
  Sedge, Umbrella plant response rating: 0
[4]; [14]
  Sedge, Umbrella plant response rating: 0
[4]; [15]
  Sedge, Umbrella plant response rating: 70
[4]; [16]
  Plant response rating, Sedge, Umbrella: 80
[5]; 62 g ai/ha, scale 0 to 100
  Plant response rating, Corn: 0
[5]; [17]
  Plant response rating, Corn: 10
[5]; 250 g ai/ha, scale 0-100
  Plant response rating, Corn: 15
[5]; [18]
  Plant response rating, Corn: 30
[6]; 62 g ai/ha, scale 0 to 100
  Plant response rating, Nightshade: 100
[6]; [17]
  Plant response rating, Nightshade: 100
[6]; 250 g ai/ha, scale 0-100
  Plant response rating, Nightshade: 100
[6]; [18]
  Plant response rating, Nightshade: 100
[7]; 62 g ai/ha, scale 0 to 100
  Plant response rating, Surinam Grass: 5
[7]; 250 g ai/ha, scale 0-100
  Plant response rating, Surinam Grass: 40
[7]; [18]
  Plant response rating, Surinam Grass: 70
[8]; 62 g ai/ha, scale 0 to 100
  Plant response rating, Nutsedge, Yellow: 0
[8]; [17]
  Plant response rating, Nutsedge, Yellow: 0
[8]; 250 g ai/ha, scale 0-100
  Plant response rating, Nutsedge, Yellow: 20
[8]; [18]
  Plant response rating, Nutsedge, Yellow: 30
[9]; 62 g ai/ha, scale 0 to 100
  Plant response rating, Johnsongrass: 20
[9]; [17]
  Plant response rating, Johnsongrass: 40
[9]; 250 g ai/ha, scale 0-100
  Plant response rating, Johnsongrass: 60
[9]; [18]
  Plant response rating, Johnsongrass: 90
[10]; 62 g ai/ha, scale 0 to 100
  Plant response rating, Foxtail, Giant: 20
[10]; [17]
  Plant response rating, Foxtail, Giant: 70
[10]; 250 g ai/ha, scale 0-100
  Plant response rating, Foxtail, Giant: 70
[10]; [18]
  Plant response rating, Foxtail, Giant: 100
[11]; [19]
  Barnyardgrass plant response rating: 15
[11]; [14]
  Barnyardgrass plant response rating: 50
[11]; [15]
  Barnyardgrass plant response rating: 65
[11]; [16]
  Plant response rating, Barnyardgrass: 90
[12]; 62 g ai/ha, scale 0 to 100
  Plant response rating, Soybean: 0
[12]; 250 g ai/ha, scale 0-100
  Plant response rating, Soybean: 5
[12]; [18]
  Plant response rating, Soybean: 60
[13]; 62 g ai/ha, scale 0 to 100
  Plant response rating, Ragweed: 0
[13]; 250 g ai/ha, scale 0-100
  Plant response rating, Ragweed: 0
[13]; [18]
  Plant response rating, Ragweed: 0
